Assay results reported in patent publication US11370841B2, “Methods of treating fibroblast growth factor 19-mediated cancers and tumors” (NGM Biopharmaceuticals, Inc., priority 2016, dated 2022).

Columns and labels:
[1] = system: FGF19-mediated HCC; assay: Tumorigenicity study in db/db mice (AAV-SOCS3, tofacitinib); type: in vivo
Procedure: Blood parameters. Blood was collected from tail vein in un-anesthetized animals using microvette serum gel tubes (Sarstedt) for measurements of glucose, insulin, ALT, AST, ALP, bile acids, and FGF19 concentrations. Serum samples were prepared by centrifugation at 4° C. for 10 minutes at 6000 g after clotting at room temperature for 30 minutes. For HbA1c measurements, whole blood was collected after euthanasia by cardiac puncture into EDTA-tubes and quickly inverted multiple times. HbA1c (from whole blood samples) and liver enzyme (from serum samples) levels were measured on Cobas Integra 400 Clinical Analyzer (Roche Diagnostics). Serum FGF19 level was determined by FGF19 enzyme-linked immunosorbent assays (ELISA) (Biovendor). Serum insulin was assessed with ELISA kits from ALPCO. Concentrations of total bile acids in serum were determined using a 3β-hydroxysteroid dehydrogenase method (Diazyme). All assays were performed according to the manufacturers' instructions.
Histology and immunohistochemistry. Livers were fixed in 10% neutral-buffered formalin and embedded in paraffin. 5 μm sections were deparaffinized in xylenes, rehydrated sequentially in graded ethanol (100%, 95%, 80%, 70%, 50%, 2 minutes each). Hematoxylin and eosin staining was performed using standard methods. For immunohistochemical studies, liver sections were subjected to antigen retrieval in a citrate-based Antigen Unmasking Solution (Vector Laboratories), and incubated for 30 minutes with 3% H2O2 at room temperature to block endogenous peroxidase activity. Sections were stained with primary antibodies against glutamine synthetase (Thermo Fisher), BrdU, PCNA, or STAT3 in PBS containing 10% goat serum. Biotinylated secondary antibodies, ABC-HRP reagent (Vectastain ABC kit, #PK-6100, Vector Laboratories) and di-amine-benzidine (DAB) colorimetric peroxidase substrate (#SK-4100, Vector Laboratories) were used for detection. When indicated, sections were counterstained with hematoxylin. Digital imaging microscopy was performed using a Leica DM4000 microscope equipped with DFC500 camera and a scanning platform (Leica). Images for the entire liver section were acquired by stitching 70-96 fields together using Surveyor program for morphometric analysis. Glutamine synthetase-positive tumor areas were quantified using Measure/Count/Area tool from ImagePro software.
Tumorigenicity study in db/db mice. 11 to 12 week old db/db mice received a single intravenous dose of AAV containing either FGF19 or a control gene (green fluorescent protein). Body weight and blood glucose were monitored. […] Mice were euthanized 24 weeks post-AAV administration and examined for liver tumor formation by gross appearance and histology.

[2] = system: primary mouse hepatocytes; assay: In vitro pSTAT3 activation in primary mouse hepatocytes; type: cell-based; conditions: isolated mouse hepatocytes, 50 ng/ml
Procedure: Primary mouse hepatocytes were isolated from 8-10 week old wild type mice (BioReclamation/IVT). Cells were diluted in attachment media, and cells were plated on collagen-coated 6-well plate (Becton Dickinson). Four hours later, cells were changed into M199 media supplemented with 10% FBS, 2 mM glutamine, 100 unit/ml penicillin, 100 unit/ml streptomycin, and cultured for 16 hours at 37° C. When indicated, 50 ng/ml FGF19 protein or 50 ng/ml mouse IL-6 (Peprotech) were added.
Cell extracts were prepared in 50 mM Tris-Cl, PH 7.2, 150 mM NaCl, 1% NP-40, 0.1% SDS, 0.5% sodium deoxycholate supplemented with a protease inhibitor cocktail (Roche) and phosphatase inhibitors (Sigma, phosphatase inhibitor cocktail set 2 and set 3), and protein concentrations were determined by BCA protein assay (Thermo Scientific).
Immunoblotting. Cell or tissue lysates were mixed with 4×SDS sample loading buffer (50 mM Tris-Cl, pH6.8, 2.5% SDS, urea, 4% β-mercaptoethanol), heated for 10 minutes at 95° C., and separated on 4-20% SDS-polyacrylamide gels (Life Technologies) in 1×MOPS running buffer. Proteins were transferred onto PVDF membranes (GE Healthcare). Membranes were blocked in TBST buffer (20 mM Tris-Cl, pH 7.6, 137 mM NaCl, 0.1% Tween-20) containing 5% non-fat dry milk for 1 hour at room temperature, and incubated with anti-pSTAT3^Y705, anti-total STAT3, anti-pERK, anti-total ERK, or anti-β-actin antibodies in blocking buffer at 4° C. overnight. Membranes were washed in TBST extensively, and bound proteins were detected with horseradish peroxidase-conjugated goat-anti-mouse IgG or goat-anti-rabbit IgG antibodies (GE Healthcare) for 1 hour at room temperature. […]
To investigate an in vitro direct effect of FGF19 on STAT3 activation in isolated hepatocytes, pSTAT3^Y705 levels in primary cultures of hepatocytes upon FGF19 stimulation were analyzed by western blotting. […] Cell lysates were prepared at the indicated time points following FGF19 stimulation and analyzed for phosphorylation of the various proteins.

[3] = system: primary mouse hepatocytes; assay: In vitro BrdU incorporation in primary mouse hepatocytes; type: cell-based; conditions: 48 hours incubation
Procedure: FIGS. 2A-2E depict non-cell autonomous promotion of hepatocellular proliferation by FGF19. 11 week old mice (n=5 per group) were implanted with osmotic pumps releasing BrdU (8.5 mg/kg/day) and FGF19 protein (0.4 mg/kg/day). Livers were harvested 6 days post-implant. (FIG. 2A) Flow cytometry analysis of BrdU-labeled livers is shown. Representative histograms from hepatocytes stained with 7-ADD and anti-BrdU-APC are shown. (FIG. 2B) BrdU-positive hepatocytes as a percentage of total hepatocytes from vehicle (V)-treated (n=5) or FGF19-treated (n=5) mice were quantified by flow cytometry. (FIG. 2C) Shown are circulating FGF19 levels on day 6 post-implant of osmotic pumps. (FIG. 2D) Lack of proliferative effects of FGF19 on primary mouse hepatocytes. Primary cultures of hepatocytes isolated from mouse liver were incubated with recombinant FGF19 protein at the indicated concentrations for 48 hours and BrdU was added during the last 20 hours of incubation. BrdU incorporation was determined using a luminescence method. Mouse hepatocyte growth factor (mHGF) was included as a positive control. RLU, relative luminescence unit. (FIG. 2E) Lack of proliferative effects of FGF19 on primary human hepatocytes. Primary cultures of hepatocytes isolated from human liver were incubated with recombinant FGF19 protein. Human hepatocyte growth factor (hHGF) was included as a positive control. […]

[4] = diet with 0.01% tofacitinib from 4 weeks after AAV-FGF19, 20 weeks

For `C[C@@H]1CCN(C(=O)CC#N)C[C@@H]1N(C)c1ncnc2[nH]ccc12` [tofacitinib], the Average tumor load [1, 4] was “reduced”, the “Number of macroscopically detectable tumors” value [1, 4] was “reduced” and the “FGF19's effect on normalizing blood levels of HbA1c” value ([1]; tofacitinib in diet) was “no impact”. The “FGF19's effect on normalizing blood levels of bile acids” value ([1]; tofacitinib in diet) was “no impact”, the “FGF19's effect on normalizing blood levels of glucose” value ([1]; tofacitinib in diet) was “no impact” and the “FGF19-induced liver tumor formation” value ([1]; tofacitinib initiated 4 weeks after AAV, euthanized at 24 weeks) was “inhibited”.

B1: IL-6: mouse IL-6 (Peprotech), positive control for pSTAT3 activation (protein, UniProt P08505 25-211, looked up)
Interleukin-6: FPTSQVRRGDFTEDTTPNRPVYTTSQVGGLITHVLWEIVEMRKELCNGNSDCMNNDDALAENNLKLPEIQRNDGCYQTGYNQEICLLKISSGLLEYHSYLEYMKNNLKDNKKDKARVLQRDTETLIHIFNQEVKDLHKIVLPTPISNALLTDKLESQKEWLRTKTIQFILKSLEEFLKVTLRSTRQT
B1 was tested, and the “STAT3 phosphorylation (pSTAT3 Y705) by western blotting” value [2] was “robust elevated phosphorylation”.

B2: HGF: recombinant hepatocyte growth factor (Peprotech), positive control for BrdU incorporation (protein, UniProt Q08048 33-495; Q08048 496-728, looked up)
Hepatocyte growth factor …: QKKRRNTLHEFKKSAKTTLTKEDPLLKIKTKKVNSADECANRCIRNRGFTFTCKAFVFDKSRKRCYWYPFNSMSSGVKKGFGHEFDLYENKDYIRNCIIGKGGSYKGTVSITKSGIKCQPWNSMIPHEHSFLPSSYRGKDLQENYCRNPRGEEGGPWCFTSNPEVRYEVCDIPQCSEVECMTCNGESYRGPMDHTESGKTCQRWDQQTPHRHKFLPERYPDKGFDDNYCRNPDGKPRPWCYTLDPDTPWEYCAIKTCAHSAVNETDVPMETTECIQGQGEGYRGTSNTIWNGIPCQRWDSQYPHKHDITPENFKCKDLRENYCRNPDGAESPWCFTTDPNIRVGYCSQIPKCDVSSGQDCYRGNGKNYMGNLSKTRSGLTCSMWDKNMEDLHRHIFWEPDASKLNKNYCRNPDDDAHGPWCYTGNPLIPWDYCPISRCEGDTTPTIVNLDHPVISCAKTKQLR
Hepatocyte growth factor beta …: VVNGIPTQTTVGWMVSLKYRNKHICGGSLIKESWVLTARQCFPARNKDLKDYEAWLGIHDVHERGEEKRKQILNISQLVYGPEGSDLVLLKLARPAILDNFVSTIDLPSYGCTIPEKTTCSIYGWGYTGLINADGLLRVAHLYIMGNEKCSQHHQGKVTLNESELCAGAEKIGSGPCEGDYGGPLICEQHKMRMVLGVIVPGRGCAIPNRPGIFVRVAYYAKWIHKVILTYKL
For B2, the BrdU signal [3] was “strong BrdU signals”.
